According to patent US20090011975A1, “TARGETED BONE MARROW PROTECTION AGENTS” (Semafore Pharmaceuticals Inc., priority 2003, published 2009):
Where two headings read alike, the source gives them in different places.

Key:
[1] = Reversibility of acyl methylenes in phosphate buffer; format: physicochemical; conditions: 50 mM phosphate buffer
Method: A prodrug strategy was devised using cyclized PFT-β and a structure activity relationship to obtain a prodrug linkage that converts to the native drug with about a 3 day half-life. A key novel intermediate (BI) (the chemical structure of which is set forth in FIG. 22) was generated in greater than 90% yield and >95% purity. […] This allowed preparation of the acyl methylene compounds recited in Table 2. All of the compounds of Table 2 were diluted into 50 mM phosphate buffer at pH=7.4 and pH=4.8 at room temperature and analyzed over time for stability. The amount of PFT-β was quantitated, and the amount of acyl methylene disappearing over time was quantitated by LCMS. A half-life for the cleavage of the acyl methylenes to generate PFT-β under relevant physiological conditions was determined. These half lives are set forth in Table 2 associated with the structures.

[2] = Binding of (BH) to hydroxyapatite and resistance to washing
Method: The final conjugate (BH) (see Table 2) was synthesized (assembled) as described and purified by HPLC. […] A 900 μL aliquot of 1.9 mM (BH) in 5 mM phosphate buffer at pH=7 was mixed with 100 μL of an hydroxyapatite suspension (25 weight percent hydroxyapatite; Sigma) containing approximately 25 mg of hydroxyapatite. The suspension was mixed gently for 15 minutes and then centrifuged at 10,000 rpm for one minute. A 100 μL aliquot was removed and analyzed by electrospray LCMS and compared to a standard solution that had not been exposed to hydroxyapatite. […] The supernatant was decanted from the hydroxyapatite solid, an additional 900 μL of de-ionized water was added, and the mix was shaken vigorously for 20 seconds. The suspension was then centrifuged at 10,000 rpm for one minute. A 100 μL aliquot of suspension was removed and analyzed by electrospray LCMS and compared to the standard solution that had not been exposed to hydroxyapatite. […] The supernatant was decanted from the hydroxyapatite solid, an additional 900 μL of de-ionized water was added, and the mix was shaken vigorously for 20 seconds. The suspension was then centrifuged at 10,000 rpm for one minute. A 100 μL aliquot was removed and analyzed by electrospray LCMS and compared to the standard solution. […] Thus, of the original 1.74 μMoles of (BH) present in the supernatant and exposed to the hydroxyapatite, a total of 0.48 μMoles was recovered in the original supernatant plus the two water washes.

[3] = Affinity of bone targeting agents to hydroxyapatite (supernatant LCMS); format: binding; conditions: 0.100 mM test solution in TBS pH 7.40, HA suspension 1.00 or 10.0 mg/ml, 1 hour (FIG. 25)
Method: To determine the affinity of the bone targeting agents to hydroxyapatite, the method described in Willson et al., Biorganic & Medicinal Chemistry Letters, 6(9), 1043-1046 (1996) for determining bone affinity using HPLC retention on a hydroxyapatite column was modified. The affinity of several bone targeting agents was determined using the following method. […] The suspension was diluted to prepare a 1.00 mg/ml HA suspension by stirring on a magnetic stir plate at the slowest speed necessary to create a uniform suspension appropriate for sampling. Each tested compound was dissolved in TBS at a concentration of 0.100 mM. 200 μl of test solution was mixed with 200 μl of TBS, HA at 1.00 mg/ml, or HA at 10.0 mg/ml, and agitated on an orbital shaker at 200 rpm for 1 hour. Each experiment was performed in triplicate. The supernatant solution was analyzed using single ion monitoring (SIM) mass spectral mode on a Shimadzu LCMS-2010 liquid chromatograph-mass spectrometer. The SIM counts in the test compound/TBS solutions were set at 100%. The amount of test compound present in the HA supernatant test solutions was expressed as a percentage of the amount of test compound available with no hydroxyapatite present. Tetracycline was included as a positive control.

[4] = Liberation of PFT-β from hydroxyapatite-bound (BH) over time; format: physicochemical
Method: The hydroxyapatite of the suspension was then resuspended in wash number 2 supernatant by pipetting up and down. A 20 μL aliquot of the resulting 900 μL suspension was removed and extracted with methanol. An analysis of the methanol extract by LCMS (versus a standard of (BH)) indicated no detectable (BH) was extractable from the hydroxyapatite sample known to contain the 1.26 μMoles of (BH) described above. […] The suspension was then gently rocked for 34 hours. A 20 μL aliquot was removed and analyzed after extraction with methanol. […] An addition aliquot of the gently mixed suspension was obtained after a total 153 hours contained no detectable, extractable (BH).

[5] = Conversion of PFT-α to PFT-β in phosphate buffer pH 7.4; format: physicochemical; conditions: for peak area (254 nm), Phosphate Buffer pH = 7.4 Stability: PFT-α initially 50 μMolar, 37° C.
Method: (§1) A 10.0 mMolar solution of PFT-α in DMSO was prepared. A 5 μL aliquot of the solution was diluted with 495 μL of methanol, and further diluted with 500 μL of acetonitrile to produce a comparison standard 50 μMolar solution. Five 5 μL aliquots of 10.0 mMolar solution of PFT-α in DMSO was added to each of five plastic vials containing 495 μL of human serum (Sigma-Aldrich), and the vials were capped. The solution was mixed thoroughly and allowed to stand at 37° C. At different timepoints, each of the 5 vials were removed from heat, cooled to room temperature, and the solution was diluted with 500 μL of acetonitrile to precipitate proteins and nondesirable solutes. Each mixture was vortexed vigorously, passed through a 0.2 um Whatman Uniprep sample filter device, and analyzed by LC-MS (the methods of which are described in Example 12). The UV areas for the peak corresponding to PFT-α (retention time=1.8 minutes) and for the peak corresponding to PFT-β (retention time=3.9 minutes) were tabulated.
The method set forth above was repeated wherein 50 mMolar phosphate buffer (pH=7.4) was substituted for human serum.

[6] = test system: C8 cells (mouse embryo fibroblasts transformed with E1a+ras); conditions: cited from earlier work
[7] = test system: p53-null mice; conditions: PFT-α injections; cited from earlier work
[8] = Conversion of PFT-α to PFT-β in human serum; format: in vitro ADME; conditions: for peak area (254 nm), Human Serum Stability: PFT-α initially 50 μMolar, 37° C.
Method: as §1

[9] = test system: C57BL strain and Balb/c strain mice; conditions: cited from earlier work
[10] = test system: p53-mediated transcription; experiment: p53-mediated transcription, MASPIN promoter-luciferase in HBECs; format: cell-based, human; conditions: PFT-β liberated from (BH) on hydroxyapatite, HBECs transfected with wild type p53 plasmid (FIG. 27)
Method: The binding to hydroxyapatite to the bone targeted prodrug (BH) and its conversion over time to liberate PFT-β was described in Example 10. The PFT-β liberated (5.11 millimolar solution from Example 10) was assayed for its biological activity by evaluating the degree of p53-mediated transcription in the presence and absence of the liberated PFT-β. The assay comprised transiently transfecting human brain endothelial cells (HBECs) with a plasmid comprising the MASPIN promoter, which contains two p53 binding sites, operably linked to the luciferase gene. A group of HBECs was transiently transfected with a plasmid encoding wild type p53. Thus, if p53 produced in the transfected HBECs is active, transcription of the luciferase gene will be activated and the produced luciferase detected. p53-mediated transcription is measured relative to the internal control plasmid pCMVβ-galactosidase to control for transfection efficiency.
The results of the assay are set forth in the bar graph of FIG. 27, the data of which represents fold induction of p53-specific transcriptional activity in HBECs. Column 1 of FIG. 27 represents a negative control resulting from HBECs not transfected with the wild type p53 plasmid. Column 2 of FIG. 27 represents data obtained from HBECs transfected with the wild type p53 plasmid which were not exposed to PFT-β. […]

[11] = Aqueous solubility; format: physicochemical
[12] = pH 4.8, room temperature, read-out: Half Life pH = 4.8
[13] = pH 7.4, room temperature, read-out: Half Life pH = 7.4 (converted)

half-life at 100 µM [1, 12]	half-life at 100 µM [1, 13]	Compound	affinity to hydroxyapatite [3]	peak area (254 nm), Phosphate Buffer pH = 7.4 Stability ([5]; 0 hours)	peak area (254 nm), Phosphate Buffer pH = 7.4 Stability ([5]; 1.5 hours)	peak area (254 nm), Phosphate Buffer pH = 7.4 Stability ([5]; 3 hours)	peak area (254 nm), Phosphate Buffer pH = 7.4 Stability ([5]; 4.5 hours)	peak area (254 nm), Phosphate Buffer pH = 7.4 Stability ([5]; 17 hours)	peak area (254 nm), Human Serum Stability ([8]; 0 hours)	peak area (254 nm), Human Serum Stability ([8]; 1.5 hours)	peak area (254 nm), Human Serum Stability ([8]; 3 hours)	peak area (254 nm), Human Serum Stability ([8]; 4.5 hours)	peak area (254 nm), Human Serum Stability ([8]; 17 hours)	other results
> 20.8 days	> 20.8 days	CC(=O)OC[n+]1c(-c2ccc(C)cc2)cn2c3c(sc21)CCCC3 [BG]												
> 20.8 days	3.23 days	Cc1ccc(-c2cn3c4c(sc3[n+]2COC(=O)c2ccc(CN(CP(=O)(O)O)CP(=O)(O)O)cc2)CCCC4)cc1 [BH]	almost identical to that of (BC)											originally present (BH) bound to the hydroxyapatite solid ([2]; 1.9 mM in 5 mM phosphate buffer pH 7, approx. 25 mg hydroxyapatite, 15 minutes): 77%; originally present (BH) in the supernatant, wash number 1 ([2]; 900 μL de-ionized water wash 1): 3.5%; originally present (BH) in the supernatant, wash number 2 ([2]; 900 μL de-ionized water wash 2): 0.6%; (BH) remained in the supernatant solution ([2]; after 15 minutes with hydroxyapatite): 23%; (BH) adsorbed to the hydroxyapatite so as to resist washing off ([2]; of original 1.74 μMoles): 1.26 µmol; total recovered in the original supernatant plus the two water washes ([2]; of original 1.74 μMoles): 0.48 µmol; (BH) extractable with methanol from hydroxyapatite ([4]; 34 hours): no detectable; prodrug cleavage product PFT-β, percent of the 1.26 μMoles sorbed ([4]; 34 hours): 19.6%; (BH) extractable with methanol from hydroxyapatite ([4]; 105 hours): no detectable; prodrug cleavage product PFT-β, percent of the 1.26 μMoles sorbed ([4]; 105 hours): 29.1%; (BH) extractable with methanol from hydroxyapatite ([4]; 153 hours): no detectable; prodrug cleavage product PFT-β, percent of the 1.26 μMoles sorbed ([4]; 153 hours): 37.5%; (BH) extractable with methanol from hydroxyapatite ([4]; start, after washes): no detectable; prodrug cleavage product PFT-β, percent of the 1.26 μMoles sorbed ([4]; start, after washes): < 7%
		Cc1ccc(C(=O)Cn2c3c(sc2=N)CCCC3)cc1 [PFT-α, 2-[2-imino-4,5,6,7-tetrahydro-1,3-benzothiazol-3(2H)-yl]-1-(4-methylphenyl)-1-ethanone]		584109	448284	303800	227004	18724	547169	312351	156823	118842	7927	time in which half of PFT-α is converted to PFT-β ([5]; phosphate buffer, initial 50 μMolar): about 1.8 hours; inhibition of apoptosis induced by doxorubicin, etoposide, paclitaxel, cytosine arabinoside, UV light, and gamma radiation ([6]; 10 micromolar concentration): inhibited apoptosis; protection on pretreatment of cells and removal of the compound before the stress-inducing event ([6]; pretreatment, compound removed before stress): no significant protection; protective effect in p53-null mice treated with radiation [7]: no protective effect; time in which half of PFT-α is converted to PFT-β ([8]; human serum, initial 50 μMolar): about 3 hours; tumors or pathological lesions in gamma-irradiated survivors ([9]; 7 months post-irradiation): No tumors or pathological lesions; rescue from 60% killing doses of gamma radiation ([9]; single intraperitoneal injection 2.2 mg/kg, 8 Gy C57BL, 6 Gy Balb/c): completely rescued; weight-loss versus controls ([9]; treated irradiated animals): less weight-loss than controls
		Cc1ccc(-c2cn3c4c(sc3n2)CCCC4)cc1 [PFT-β, 2-p-Tolyl-5,6,7,8-tetrahydro-benzo[d]imidazo[2,1-b]thiazole]		13032	176201	307793	427152	601840	13781	259004	448826	512198	696098	biological activity (inhibition of p53-mediated transcription) [10]: biologically active; aqueous solubility [11]: about 3 μMolar
		Phenyphosphonic acid [BK]	no observable affinity											
